Where a SMILES comes first, the peptide text is derived from it. [ ]: non-standard residue; d: D form. pGlu = O=C1CC[C@@H](C(=O)O)N1

Assay [1] relates to elimination of phenol red from the respiratory fluid. The assay is described as follows: Mucosecretolytic activity (phenol red test in the mouse). It counts as in vivo. Conditions: 100 mg/kg os; for Mean secretion (total μg) (mean ± S.E.): controls 2.73 ± 0.18, **p <0.01 Dunnett's "t" test.
Assay [2] can be described thus: In vitro antioxidant activity (DPPH test). It counts as biochemical. The source says: The antioxidant (radical-scavenger) activity was studied by means of the DPPH in vitro test and with the paracetamol in vivo test.
Assay [3] has as its system paracetamol acute toxicity. The assay is described as follows: In vivo antioxidant activity (paracetamol test). Details: species or system Male Crl: CD-1 (ICR) BR mice. The settings on record: 100 mg/kg os 30 minutes before and 5 hours after paracetamol 1000 mg/kg i.p., 6 days; for Mortality (%): controls 90%. Here is the method: The in vivo antioxidant (radical scavenger) activity was evidenced by means of the protection test against paracetamol acute toxicity. Male Crl: CD-1 (ICR) BR mice, weighing 25-30 g, were treated intraperitoneally with 1000 mg/kg (1 ml/kg) of paracetamol dissolved in 20% DMF in water immediately before the administration.
In vivo antioxidant activity (paracetamol test)

The conditions of assay [4]: known from EP-A-332,946; in words; cited from earlier work.

Consider `COC(=O)[C@H](CS)NC(=O)[C@@H]1CCC(=O)N1` [Ic, N-(5-oxo-L-prolyl)-L-cysteine methyl ester] ([pGlu]-Cys-OMe), for which, in assay [1], the “Variat. (%) of mean secretion vs controls” value (from here on “Variat. (%) … vs controls”) is reported as “+143.2%” and the “Mean secretion (total μg) (mean ± S.E.)” value was 6.64 ± 1.00 µg. Besides, in assay [2] (5.10^-5 M, 50 µM), the “Variat. (%) of absorbancies” value is listed as -49.1%. Moreover, the “Variat. (%) of absorbancies” value in assay [2] (10^-4 M, 100 µM) was -82.7%. The “Variat. (%) of absorbancies” value in assay [2] (10^-5 M, 10 µM) is on record as -10.4%. Also, in assay [3], the “Mortality, Variat. vs controls (%)” value amounted to 45.4% and the “Mortality (%)” value is 50%.

Regarding `COC(=O)[C@H](CS)NC(=O)[C@@H]1CCC(=S)N1` [Id, N-(5-thioxo-L-prolyl)-L-cysteine methyl ester], the “Variat. (%) … vs controls” value in assay [1] was “+97.4%”. For the same compound, the “Mean secretion (total μg) (mean ± S.E.)” value in assay [1] amounted to 5.39 ± 0.59 µg. Further, the “Variat. (%) of absorbancies” value in assay [2] (5.10^-5 M, 50 µM) is -51.8%; in assay [2] (10^-4 M, 100 µM) it was -79.1%; in assay [2] (10^-5 M, 10 µM), -14.3%. The “Mortality, Variat. vs controls (%)” value in assay [3] came to 45.4%. Moreover, the “Mortality (%)” value in assay [3] is 50%.

`O=C(O)[C@H](CS)NC(=O)[C@@H]1CCC(=S)N1` [Ie, N-(5-thioxo-L-prolyl)-L-cysteine]: in assay [1], the “Variat. (%) … vs controls” value is reported as “+112.8%” and the “Mean secretion (total μg) (mean ± S.E.)” value amounted to 5.81 ± 0.62 µg. For the same compound, the “Variat. (%) of absorbancies” value in assay [2] (5.10^-5 M, 50 µM) was -51.8%. In addition, the “Variat. (%) of absorbancies” value in assay [2] (10^-4 M, 100 µM) is given as -83.1%. Further, the “Variat. (%) of absorbancies” value in assay [2] (10^-5 M, 10 µM) was -14.3%. In addition, in assay [3], the “Mortality, Variat. vs controls (%)” value turned out to be 66.7% and the “Mortality (%)” value is listed as 30%.

Regarding `O=C1O[C@H]([C@@H](O)CO)C(O)=C1O` [L-ascorbic acid], the “Variat. (%) of absorbancies” value is reported as -49.5% in assay [2] (5.10^-5 M, 50 µM); -86.0% in assay [2] (10^-4 M, 100 µM); -17.6% in assay [2] (10^-5 M, 10 µM).

On to `N[C@@H](CS)C(=O)O` [L-cysteine], for which the “Variat. (%) of absorbancies” value in assay [2] (5.10^-5 M, 50 µM) is listed as -56.5%; in assay [2] (10^-4 M, 100 µM), -83.7%; in assay [2] (10^-5 M, 10 µM), -10.9%.

`O=C1CC[C@@H](C(=O)N[C@@H](CS)C(=O)O)N1` [N-(5-oxo-L-prolyl)-L-cysteine] ([pGlu]-Cys-OH): in assay [1], the “Variat. (%) … vs controls” value is recorded as “+92.7%” and the “Mean secretion (total μg) (mean ± S.E.)” value is 5.26 ± 0.25 µg. In assay [4], the anticataractogenic activity entry is “known to have anticataractogenic activity”. Also, in assay [2] (5.10^-5 M, 50 µM), the “Variat. (%) of absorbancies” value was -49.6%. Besides, the “Variat. (%) of absorbancies” value in assay [2] (10^-4 M, 100 µM) was -88.1%. Moreover, in assay [2] (10^-5 M, 10 µM), the “Variat. (%) of absorbancies” value is reported as -29.6%. Further, in assay [3], the “Mortality, Variat. vs controls (%)” value was found to be 66.7% and the “Mortality (%)” value amounted to 30%.

For the compound `CC(=O)N[C@@H](CS)C(=O)O` [N-acetyl-L-cysteine], in assay [1], the “Variat. (%) … vs controls” value is “+61.9%” and the “Mean secretion (total μg) (mean ± S.E.)” value was 4.42 ± 0.83 µg. In assay [2] (5.10^-5 M, 50 µM), the “Variat. (%) of absorbancies” value is -47.9%. In assay [2] (10^-4 M, 100 µM), the “Variat. (%) of absorbancies” value is recorded as -86.3%. In addition, in assay [2] (10^-5 M, 10 µM), the “Variat. (%) of absorbancies” value is given as -10.4%. In assay [3], the “Mortality, Variat. vs controls (%)” value came out at 45.4% and the “Mortality (%)” value is listed as 50%.
